Laboratory results as given in patent US10870638B2, “Pyridazinone compound or its salt, and herbicide containing it” (ISHIHARA SANGYO KAISHA, LTD., priority 2016, dated 2020).

What was measured:
Assay in all cases: Test Example 1: foliar treatment, growth inhibition rate on 14th day
Format in all cases: in vivo
Settings in all cases: active ingredient amount 31 g/ha, 14th day after application
[1] = test system: soybean (Glycine max Merr.)
From the text: (§1) Upland field soil was put into a 1/300,000 hectare pot, and seeds of various plants were sown. When the respective plants reached predetermined leaf stage ((1) barnyardgrass (Echinochloa crus-[…].): 0.5 to 2.9 leaf stage, (2) crabgrass (Digitaria sanquinalis L.): 0.5 to 3.0 leaf stage, (3) green foxtail (Setaria viridis L.): 0.5 to 3.2 leaf stage, (4) wild oat (Avena fatua L.): 0.4 to 1.2 leaf stage, (5) italian ryegrass (Lolium multiflorum Lam.): 0.4 to 2.0 leaf stage, (6) redroot pigweed (Amaranthus retroflexus L.): cotyledon stage to 2.2 leaf stage, (7) rice (Oryza sativa L.): 0.2 to 2.7 leaf stage, (8) corn (Zea mays L.): 1.7 to 3.6 leaf stage, (9) wheat (Triticum aestivum L.): 1.3 to 2.3 leaf stage, (10) soybean (Glycine max Merr.); primary leaf stage), wettable powders or emulsifiable concentrates of the compounds of the present invention prepared in accordance with a conventional preparation method, were weighed so as to achieve the prescribed active ingredient amounts, and diluted with water in an amount corresponding to 1,000 liters per 1 hectare (containing 0.1 vol % of an agricultural spreader (surfactant WK manufactured by MARUWA BIOCHEMICAL Co., Ltd.)), and the spray solutions thus prepared were applied for foliar treatment by a small sprayer. On the 14th day after the application, the state of growth of the respective plants was visually observed, and the herbicidal effect was evaluated by a growth inhibition rate (%) of 0 (equivalent to the non-treated area) to 100 (complete kill).

[2] = test system: wheat (Triticum aestivum L.)
From the text: as §1

[3] = test system: green foxtail (Setaria viridis L.)
From the text: as §1

corn (Zea mays L.) = test system: corn (Zea mays L.)
From the text: as §1

[4] = test system: italian ryegrass (Lolium multiflorum Lam.)
From the text: as §1

[5] = test system: crabgrass (Digitaria sanquinalis L.)
From the text: as §1

[6] = test system: wild oat (Avena fatua L.)
From the text: as §1

rice (Oryza sativa L.) = test system: rice (Oryza sativa L.)
From the text: as §1

[7] = test system: barnyardgrass (Echinochloa crus-qalli L.)
From the text: as §1

[8] = test system: redroot pigweed (Amaranthus retroflexus L.)
From the text: as §1

Cc1ccc(Nc2ncc(C(F)(F)F)cc2Cl)cc1-c1c(O)c(C)nn(C)c1=O [1-144]
Growth inhibition rate (%) Soybean [1]: 20%
Growth inhibition rate (%) Wheat [2]: 0%
Growth inhibition rate (%) Green foxtail [3]: 60%
Growth inhibition rate (%) Corn (corn (Zea mays L.)): 10%
Growth inhibition rate (%) Italian ryegrass [4]: 0%
Growth inhibition rate (%) Crabgrass [5]: 10%
Growth inhibition rate (%) Wild oat [6]: 10%
Growth inhibition rate (%) Rice (rice (Oryza sativa L.)): 20%
Growth inhibition rate (%) Barnyardgrass [7]: 30%
Growth inhibition rate (%) Redroot pigweed [8]: 0%

CC(=O)Oc1c(C)nn(C)c(=O)c1-c1cc(N(C)c2ncc(C(F)(F)F)cc2Cl)ccc1C [1-145]
Growth inhibition rate (%) Soybean [1]: 35%
Growth inhibition rate (%) Wheat [2]: 50%
Growth inhibition rate (%) Green foxtail [3]: 70%
Growth inhibition rate (%) Corn (corn (Zea mays L.)): 40%
Growth inhibition rate (%) Italian ryegrass [4]: 20%
Growth inhibition rate (%) Crabgrass [5]: 90%
Growth inhibition rate (%) Wild oat [6]: 40%
Growth inhibition rate (%) Rice (rice (Oryza sativa L.)): 0%
Growth inhibition rate (%) Barnyardgrass [7]: 93%
Growth inhibition rate (%) Redroot pigweed [8]: 0%

CC(=O)Oc1c(C)nn(C)c(=O)c1-c1cc(Nc2ncc(C(F)(F)F)cc2Cl)ccc1C [1-146]
Growth inhibition rate (%) Soybean [1]: 10%
Growth inhibition rate (%) Wheat [2]: 85%
Growth inhibition rate (%) Green foxtail [3]: 93%
Growth inhibition rate (%) Corn (corn (Zea mays L.)): 75%
Growth inhibition rate (%) Italian ryegrass [4]: 70%
Growth inhibition rate (%) Crabgrass [5]: 90%
Growth inhibition rate (%) Wild oat [6]: 88%
Growth inhibition rate (%) Rice (rice (Oryza sativa L.)): 0%
Growth inhibition rate (%) Barnyardgrass [7]: 98%
Growth inhibition rate (%) Redroot pigweed [8]: 0%

COC(=O)OC(C)Oc1c(C)nn(C)c(=O)c1-c1cc(Oc2ncc(C(F)(F)F)cc2Cl)c(C)cc1C (stereo not shown) [1-151]
Growth inhibition rate (%) Soybean [1]: 0%
Growth inhibition rate (%) Wheat [2]: 10%
Growth inhibition rate (%) Green foxtail [3]: 95%
Growth inhibition rate (%) Corn (corn (Zea mays L.)): 35%
Growth inhibition rate (%) Italian ryegrass [4]: 83%
Growth inhibition rate (%) Crabgrass [5]: 99%
Growth inhibition rate (%) Wild oat [6]: 95%
Growth inhibition rate (%) Rice (rice (Oryza sativa L.)): 65%
Growth inhibition rate (%) Barnyardgrass [7]: 99%
Growth inhibition rate (%) Redroot pigweed [8]: 30%

CC(=O)Cn1ncc(O)c(-c2cc(Oc3ncc(C(F)(F)F)cc3Cl)ccc2C)c1=O [1-169]
Growth inhibition rate (%) Soybean [1]: 0%
Growth inhibition rate (%) Wheat [2]: 0%
Growth inhibition rate (%) Green foxtail [3]: 99%
Growth inhibition rate (%) Corn (corn (Zea mays L.)): 98%
Growth inhibition rate (%) Italian ryegrass [4]: 90%
Growth inhibition rate (%) Crabgrass [5]: 95%
Growth inhibition rate (%) Wild oat [6]: 90%
Growth inhibition rate (%) Rice (rice (Oryza sativa L.)): 10%
Growth inhibition rate (%) Barnyardgrass [7]: 90%
Growth inhibition rate (%) Redroot pigweed [8]: 20%

Cc1ccc(Oc2ncc(C#N)cc2Cl)cc1-c1c(O)c(C)nn(C)c1=O [Compound 2-2]
Growth inhibition rate (%) Soybean [1]: 0%
Growth inhibition rate (%) Wheat [2]: 0%
Growth inhibition rate (%) Green foxtail [3]: 75%
Growth inhibition rate (%) Corn (corn (Zea mays L.)): 10%
Growth inhibition rate (%) Italian ryegrass [4]: 10%
Growth inhibition rate (%) Crabgrass [5]: 70%
Growth inhibition rate (%) Wild oat [6]: 10%
Growth inhibition rate (%) Rice (rice (Oryza sativa L.)): 0%
Growth inhibition rate (%) Barnyardgrass [7]: 70%
Growth inhibition rate (%) Redroot pigweed [8]: 20%

CC(=O)Oc1c(C)nn(C)c(=O)c1-c1cc(Oc2ncc(C#N)cc2Cl)ccc1C [Compound 2-60]
Growth inhibition rate (%) Soybean [1]: 0%
Growth inhibition rate (%) Wheat [2]: 0%
Growth inhibition rate (%) Green foxtail [3]: 75%
Growth inhibition rate (%) Corn (corn (Zea mays L.)): 50%
Growth inhibition rate (%) Italian ryegrass [4]: 40%
Growth inhibition rate (%) Crabgrass [5]: 85%
Growth inhibition rate (%) Wild oat [6]: 50%
Growth inhibition rate (%) Rice (rice (Oryza sativa L.)): 50%
Growth inhibition rate (%) Barnyardgrass [7]: 88%
Growth inhibition rate (%) Redroot pigweed [8]: 0%

Cc1ccc(Oc2ncc3cc(Br)ccc3n2)cc1-c1c(O)c(C)nn(C)c1=O [Compound 2-90]
Growth inhibition rate (%) Soybean [1]: 0%
Growth inhibition rate (%) Wheat [2]: 20%
Growth inhibition rate (%) Green foxtail [3]: 75%
Growth inhibition rate (%) Corn (corn (Zea mays L.)): 0%
Growth inhibition rate (%) Italian ryegrass [4]: 10%
Growth inhibition rate (%) Crabgrass [5]: 0%
Growth inhibition rate (%) Wild oat [6]: 0%
Growth inhibition rate (%) Rice (rice (Oryza sativa L.)): 0%
Growth inhibition rate (%) Barnyardgrass [7]: 90%
Growth inhibition rate (%) Redroot pigweed [8]: 0%

Cc1ccc(Oc2ncc(Cl)cc2C(F)(F)F)cc1-c1c(O)c(C)nn(C)c1=O [Compound 2-92]
Growth inhibition rate (%) Soybean [1]: 0%
Growth inhibition rate (%) Wheat [2]: 0%
Growth inhibition rate (%) Green foxtail [3]: 10%
Growth inhibition rate (%) Corn (corn (Zea mays L.)): 80%
Growth inhibition rate (%) Italian ryegrass [4]: 78%
Growth inhibition rate (%) Crabgrass [5]: 30%
Growth inhibition rate (%) Wild oat [6]: 50%
Growth inhibition rate (%) Rice (rice (Oryza sativa L.)): 0%
Growth inhibition rate (%) Barnyardgrass [7]: 80%
Growth inhibition rate (%) Redroot pigweed [8]: 20%

Cc1ccc(Oc2ccc3cc(Br)ccc3n2)cc1-c1c(O)c(C)nn(C)c1=O [Compound 2-94]
Growth inhibition rate (%) Soybean [1]: 0%
Growth inhibition rate (%) Wheat [2]: 0%
Growth inhibition rate (%) Green foxtail [3]: 100%
Growth inhibition rate (%) Corn (corn (Zea mays L.)): 0%
Growth inhibition rate (%) Italian ryegrass [4]: 20%
Growth inhibition rate (%) Crabgrass [5]: 0%
Growth inhibition rate (%) Wild oat [6]: 40%
Growth inhibition rate (%) Rice (rice (Oryza sativa L.)): 0%
Growth inhibition rate (%) Barnyardgrass [7]: 100%
Growth inhibition rate (%) Redroot pigweed [8]: 0%

Cc1ccc(Oc2nc3ccccc3o2)cc1-c1c(O)c(C)nn(C)c1=O [Compound 2-104]
Growth inhibition rate (%) Soybean [1]: 10%
Growth inhibition rate (%) Wheat [2]: 20%
Growth inhibition rate (%) Green foxtail [3]: 70%
Growth inhibition rate (%) Corn (corn (Zea mays L.)): 10%
Growth inhibition rate (%) Italian ryegrass [4]: 30%
Growth inhibition rate (%) Crabgrass [5]: 60%
Growth inhibition rate (%) Wild oat [6]: 35%
Growth inhibition rate (%) Rice (rice (Oryza sativa L.)): 10%
Growth inhibition rate (%) Barnyardgrass [7]: 85%
Growth inhibition rate (%) Redroot pigweed [8]: 10%

Cc1ccc(Oc2nc3cc(Cl)ccc3o2)cc1-c1c(O)c(C)nn(C)c1=O [Compound 2-105]
Growth inhibition rate (%) Soybean [1]: 25%
Growth inhibition rate (%) Wheat [2]: 25%
Growth inhibition rate (%) Green foxtail [3]: 90%
Growth inhibition rate (%) Corn (corn (Zea mays L.)): 65%
Growth inhibition rate (%) Italian ryegrass [4]: 80%
Growth inhibition rate (%) Crabgrass [5]: 95%
Growth inhibition rate (%) Wild oat [6]: 75%
Growth inhibition rate (%) Rice (rice (Oryza sativa L.)): 35%
Growth inhibition rate (%) Barnyardgrass [7]: 90%
Growth inhibition rate (%) Redroot pigweed [8]: 0%

CC(=O)Oc1c(C)nn(C)c(=O)c1-c1cc(Oc2ccc(C(F)(F)F)cc2Cl)ccc1C [Compound 2-114]
Growth inhibition rate (%) Soybean [1]: 0%
Growth inhibition rate (%) Wheat [2]: 25%
Growth inhibition rate (%) Green foxtail [3]: 80%
Growth inhibition rate (%) Corn (corn (Zea mays L.)): 75%
Growth inhibition rate (%) Italian ryegrass [4]: 80%
Growth inhibition rate (%) Crabgrass [5]: 10%
Growth inhibition rate (%) Wild oat [6]: 83%
Growth inhibition rate (%) Rice (rice (Oryza sativa L.)): 10%
Growth inhibition rate (%) Barnyardgrass [7]: 98%
Growth inhibition rate (%) Redroot pigweed [8]: 0%
